These are literature values, as cited in patent US20090011041A1, “Compositions for Correcting Age Related Changes of a Human Endocrine System and Methods for Producing a Pharmaceutical Form Bases on Said Compositions” (priority 2004, published 2009).

Where two headings read alike, the source gives them in different places.

The subject of series [1] is production of IL-6 by peripheral mononuclears. To be noted: dose-dependent manner; p<0.01.
For series [2] the following is noted: for distribution volume: after PO use.
For series [3] the following is noted: DHEA 50 mg/day, placebo effect less than 10%.
The test system of the next series is IGF-1 level. To be noted: elderly patients; 50 mg/day; p<0.01.

In the case of `C[C@]12CC[C@H](OS(=O)(=O)O)CC1=CC[C@@H]1[C@@H]2CC[C@]2(C)C(=O)CC[C@@H]12` [DHEA-S, DHEA-sulfate], the “production of IL-6 by peripheral mononuclears” value (shortened to “production”) in series [1] is listed as “inhibit the production of IL-6”. Further, the distribution volume in series [2] is 8.5 to 9.3 L. Moreover, in series [2] (b32), the half-life period was 7 to 10 h. Moreover, in series [2] (b33), the half-life period is 7 to 22 h. In series [2] (in vivo), the “metabolic clearance rate (MCR)” value is 5 to 20 L/day; the “renal excretion, share of the elimination of DHEA-S and its metabolites” value is listed as 51-73%.

Turning to `C[C@]12CC[C@H](O)CC1=CC[C@@H]1[C@@H]2CC[C@]2(C)C(=O)CC[C@@H]12` [DHEA, dehydroepiandrosterone], in series [3] (females), the “improvement in the physical and mental state, females” value is 84%. In series [3] (males), the “improvement in the physical and mental state, males” value is recorded as 67%. In the series on diabetic mice, the hyperglycemia and hyperinsulinemia result is “reduces hyperglycemia and hyperinsulinemia”. Also, in the series with IGF-1 level, the IGF-1 level result is reported as “increases the IGF-1 level”. Also, in series [1], the “production” value is recorded as “inhibit the production of IL-6”. The distribution volume in series [2] was 17 to 38.5 L. In series [2] (b32), the half-life period was 0.25 to 0.5 h. Moreover, in series [2] (b33), the half-life elimination period is 0.25 to 0.633 h. The “metabolic clearance rate (MCR)” value in series [2] (in vivo) is on record as 2000 L/day.

`C[C@]12CCC(=O)C=C1CC[C@@H]1[C@@H]2CC[C@]2(C)C(=O)CC[C@@H]12` [androstenedione]: in series [1], the “production” value was “inhibit the production of IL-6”.
